Experimental data published in US10375956B2, “Herbicidally active 2-(substituted-phenyl)-cyclopentane-1,3-dione compounds and derivatives thereof” (Syngenta Limited, priority 2013, dated 2019).

What was measured:
Format in all cases: in vivo
[1] = tested on: Zea mays (ZEAMX, corn/maize); assay: Test 1 glasshouse assay, post-emergence herbicidal activity; settings: 312 h, post-emergence (Example 1B Table 1), after 13 days, read-out: Percentage phytotoxicity ZEAMX
Procedure: (§1) Seeds of a variety of test species are sown in standard soil in pots. After cultivation for one day (pre-emergence) or after 8 days cultivation (post-emergence) under controlled conditions in a glasshouse (at 24/16° C., day/night; 14 hours light; 65% humidity), the plants are sprayed with an aqueous spray solution derived from the formulation of the “technical” (i.e. unformulated) active ingredient in acetone/water (50:50) solution containing 0.5% Tween 20 (polyoxyethylene sorbitan monolaurate, CAS Registry Number 9005-64-5). The test plants are then grown on under controlled conditions in a glasshouse (at 24/16° C., day/night; 14 hours light; 65% humidity) and watered twice daily. After 13 days for pre- or post-emergence, the test is evaluated visually, and an assessed percentage phytotoxicity score is given for each herbicidal application on each plant species (where 100%=total damage to plant; 0%=no damage to plant).
(§2) Test plants include the following: Abutilon theophrasti (ABUTH) and Amaranthus retroflexus (AMARE); these are all dicotyledonous (broadleaved) weeds. Setaria faberi (SETFA), Alopecurus myosuroides (ALOMY), and Echinochloa crus-galli (ECHCG); these are all grassy monocotyledonous weeds. Also: Zea mays (ZEAMX, corn/maize), which can be a grassy weed (“volunteer” corn) in some circumstances.

[2] = tested on: Amaranthus retroflexus (AMARE); assay: as above; settings: 312 h, post-emergence (Example 1B Table 1), after 13 days, read-out: Percentage phytotoxicity AMARE
Procedure: as §1, §2

[3] = tested on: Abutilon theophrasti (ABUTH); assay: as above; settings: 312 h, post-emergence (Example 1B Table 1), after 13 days, read-out: Percentage phytotoxicity ABUTH
Procedure: as §1, §2

Setaria faberi (SETFA) [4] = assay: as above; settings: 312 h, post-emergence (Example 1B Table 1), after 13 days, read-out: Percentage phytotoxicity SETFA
Procedure: as §1, §2

Lolium perenne (LOLPE) = assay: as above; settings: 312 h, post-emergence (Example 1B Table 2), after 13 days, read-out: Percentage phytotoxicity LOLPE
Procedure: as §1
(§3) Lolium perenne (LOLPE), Alopecurus myosuroides (ALOMY), Echinochloa crus-galli (ECHCG), and Avena fatua (AVEFA); these are all grassy monocotyledonous weeds. Cool climate crop plant: Triticum aestivum (TRZAW, winter wheat).

Avena fatua (AVEFA) = assay: as above; settings: 312 h, post-emergence (Example 1B Table 2), after 13 days, read-out: Percentage phytotoxicity AVEFA
Procedure: as §1, §3

[5] = tested on: Triticum aestivum (TRZAW, winter wheat); assay: as above; settings: 312 h, post-emergence (Example 1B Table 2), after 13 days, crop plant, read-out: Percentage phytotoxicity TRZAW
Procedure: as §1, §3

[6] = tested on: Alopecurus myosuroides (ALOMY); assay: as above; settings: 312 h, after 13 days, read-out: Percentage phytotoxicity ALOMY
Procedure: as §1, §2, §3

[7] = tested on: Echinochloa crus-galli (ECHCG); assay: as above; settings: 312 h, after 13 days, read-out: Percentage phytotoxicity ECHCG
Procedure: as §1, §2, §3

[8] = tested on: Alopecurus myosuroides (ALOMY); assay: Test 1 glasshouse assay, pre-emergence herbicidal activity; settings: 312 h, visual evaluation after 13 days, read-out: Percentage phytotoxicity ALOMY
Procedure: as §1
(§4) Test plants include the following: Abutilon theophrasti (ABUTH), Amaranthus retroflexus (AMARE): these are dicotyledonous (broadleaved) weeds. Setaria faberi (SETFA), Alopecurus myosuroides (ALOMY), Echinochloa crus-galli (ECHCG): these are grassy monocotyledonous weeds. Also: Zea mays (ZEAMX, corn/maize), which can be a grassy weed (“volunteer” corn) in some circumstances.

[9] = tested on: Zea mays (ZEAMX, corn/maize); assay: as above; settings: 312 h, visual evaluation after 13 days, read-out: Percentage phytotoxicity ZEAMX
Procedure: as §1, §4

[10] = tested on: Echinochloa crus-galli (ECHCG); assay: as above; settings: 312 h, visual evaluation after 13 days, read-out: Percentage phytotoxicity ECHCG
Procedure: as §1, §4

[11] = tested on: Amaranthus retroflexus (AMARE); assay: as above; settings: 312 h, visual evaluation after 13 days, read-out: Percentage phytotoxicity AMARE
Procedure: as §1, §4

[12] = tested on: Abutilon theophrasti (ABUTH); assay: as above; settings: 312 h, visual evaluation after 13 days, read-out: Percentage phytotoxicity ABUTH
Procedure: as §1, §4

Setaria faberi (SETFA) [13] = assay: as above; settings: 312 h, visual evaluation after 13 days, read-out: Percentage phytotoxicity SETFA
Procedure: as §1, §4

[14] = post-emergence (Example 1B Table 1), 31.25 g/ha
[15] = post-emergence (Example 1B Table 1)
[16] = post-emergence (Example 1B Table 2), 62.5 g/ha
[17] = post-emergence (Example 1B Table 2)

Structure (SMILES)	pest or weed control at 250 g/ha [1] [%]	pest or weed control at 250 g/ha [2] [%]	pest or weed control at 250 g/ha [3] [%]	pest or weed control at 250 g/ha (Setaria faberi (SETFA) [4]) [%]	pest or weed control at 250 g/ha [6, 15] [%]	pest or weed control at 250 g/ha [7, 15] [%]	pest or weed control at 250 g/ha [8] [%]	pest or weed control at 250 g/ha [9] [%]	pest or weed control at 250 g/ha [10] [%]	pest or weed control at 250 g/ha [11] [%]	pest or weed control at 250 g/ha [12] [%]	pest or weed control at 250 g/ha (Setaria faberi (SETFA) [13]) [%]	further results
C#CCC1CC(=O)C(c2c(C)cc(-c3ncc(Cl)cn3)cc2C)C1=O (stereo not shown) [Compound A5, 2-[4-(5-chloropyrimidin-2-yl)-2,6-dimethylphenyl]-4-prop-2-ynylcyclopentane-1,3-dione]	100	90	90	100	100	100	100	100	100	100	70	100	pest or weed control at 31.25 g/ha ([1]; 31.25 g/ha): 100%; pest or weed control at 31.25 g/ha ([2]; 31.25 g/ha): 30%; pest or weed control at 31.25 g/ha ([3]; 31.25 g/ha): 30%; pest or weed control at 31.25 g/ha (Setaria faberi (SETFA) [4]; 31.25 g/ha): 100%; pest or weed control at 62.5 g/ha (Lolium perenne (LOLPE); 62.5 g/ha): 90%; pest or weed control at 250 g/ha (Lolium perenne (LOLPE); 250 g/ha): 100%; pest or weed control at 62.5 g/ha (Avena fatua (AVEFA); 62.5 g/ha): 100%; pest or weed control at 250 g/ha (Avena fatua (AVEFA); 250 g/ha): 100%; plant injury at 62.5 g/ha ([5]; 62.5 g/ha): 80%; plant injury at 250 g/ha ([5]; 250 g/ha): 90%; pest or weed control at 31.25 g/ha [6, 14]: 80%; pest or weed control at 62.5 g/ha [6, 16]: 90%; pest or weed control at 250 g/ha [6, 17]: 100%; pest or weed control at 31.25 g/ha [7, 14]: 100%; pest or weed control at 62.5 g/ha [7, 16]: 100%; pest or weed control at 250 g/ha [7, 17]: 100%
C#CCC1CC(=O)C(c2cc(-c3ccc(Cl)cn3)ccc2C)C1=O (stereo not shown) [Compound A17]	60	50	10	80	70	80	70	60	70	10	10	70	
